Results published in US9078852B2, “Retinaldehyde in the treatment of obesity, diabetes and other conditions” (The Brigham and Women's Hospital, Inc., priority 2008, dated 2015).
Where two headings read alike, the source gives them in different places.

Tests used:
RARα-LBD = target: T1, RARα-LBD (Homo sapiens, UniProt P10276); experiment: LBD-GAL4 transfection assay, RARα-LBD; type: cell-based
T1 construct: expressed in transfected cells; host or cells: NIH 3T3 cells
T1 sequence (P10276 183-417 limits assumed): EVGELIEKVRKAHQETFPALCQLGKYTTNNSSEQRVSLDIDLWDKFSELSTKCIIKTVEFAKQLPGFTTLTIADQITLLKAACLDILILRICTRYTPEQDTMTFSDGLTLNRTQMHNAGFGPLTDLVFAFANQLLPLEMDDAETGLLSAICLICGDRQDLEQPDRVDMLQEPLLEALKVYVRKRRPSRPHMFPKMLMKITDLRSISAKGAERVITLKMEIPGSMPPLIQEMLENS
Text: (§1) Transient transfection of NIH 3T3 cells (2.3×10^4 cells, 24-well plates) with PCMX-β-galactosidase and LBD/yeast Gal 4/luciferase constructs used Fugene (Roche) as before (Ziouzenkova, et al., Proc. Natl. Acad. Sci. USA 100:2730-5 (2003)). For siRNA transfections, 3T3-L1 cells (90% confluence, antibiotic-free DMEM, 10% CS, 24-well plates) received control (sequences C, D) or specific siRXRα and siRXRβ sequences (Santa Cruz) using Lipofectamine 2000/OptiMEM medium (Invitrogen) and media supplemented with 10% FBS 5 h post-transfection. Western blotting evaluated RXR levels post-transfection (48 h). After transfection (48 h), we induced differentiation before analysis after 7 days.
(§2) Given Rald's suppression of PPARγ agonist-stimulated adipogenesis and adiponectin release, we tested if Rald altered activation of RAR and RXR, and if it did so in a way distinct from other retinoids. Ligand binding domain (LBD)-GAL4 transfection assays were performed in 3T3-NIH fibroblasts in the presence or absence of known specific nuclear receptor agonists and/or Rald. […] Rald alone had no effect on RXRα-LBD activation. […] Thus, Rald plays a distinct, independent role from RA in RXRα-LBD regulation, suppressing ligand-mediated activation.

Human full-length PPARγ2 = target: T2, Human full-length PPARγ2 (Homo sapiens, UniProt P37231); experiment: Scintillation proximity assay / cell-free radioligand displacement; type: binding
T2 sequence (P37231 1-505): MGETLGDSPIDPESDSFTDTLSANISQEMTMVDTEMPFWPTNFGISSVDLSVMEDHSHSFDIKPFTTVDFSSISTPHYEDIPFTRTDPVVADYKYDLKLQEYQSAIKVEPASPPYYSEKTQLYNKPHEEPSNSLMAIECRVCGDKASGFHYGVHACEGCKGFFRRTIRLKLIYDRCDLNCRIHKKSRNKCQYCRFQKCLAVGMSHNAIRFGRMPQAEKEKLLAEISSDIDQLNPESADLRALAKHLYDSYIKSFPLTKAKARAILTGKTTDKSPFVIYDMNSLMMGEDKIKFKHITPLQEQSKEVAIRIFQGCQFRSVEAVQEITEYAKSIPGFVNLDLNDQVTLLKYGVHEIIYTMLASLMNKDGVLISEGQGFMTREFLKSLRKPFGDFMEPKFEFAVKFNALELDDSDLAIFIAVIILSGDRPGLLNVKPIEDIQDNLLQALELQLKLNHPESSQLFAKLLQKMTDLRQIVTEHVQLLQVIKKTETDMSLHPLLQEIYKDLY
Method: Scintillation proximity assays were performed on our behalf.
(§3) Given these effects of Rald on RXR-LBD activation, we next tested if Rald could inhibit activation of a transfected canonical PPAR response element (PPRE) luciferase construct after RXR and/or PPARγ transfection and respective agonist stimulation (9-cis RA or BRL). […] Similar effects were evident in cell-based PPARγ-LBD assays in the presence of BRL. Thus, Rald suppresses adipogenic gene expression, adipocyte lipid accumulation, RXRα and PPARγ-LBD activation, as well as PPRE responses, all at concentrations (<1 μM) that overlap levels present in rodent fat in vivo. Importantly, these Rald effects diverge from the responses seen to RA.

[1] = system: 3T3-L1 mouse pre-adipocyte; experiment: 3T3-L1 pre-adipocyte differentiation (adipogenesis) assay; type: cell-based; details: for adiponectin expression, compound added early: added Day 0 of differentiation; for adiponectin expression / adipogenesis, compound added later: added Day 2 of differentiation
Method: We cultured and differentiated mouse 3T3-L1 preadipocytes and primary fibroblasts isolated from 16-days old embryos using standard procedures (Green, et al., Cell 3:127-33 (1974)). After reaching confluence (DMEM, high glucose, 10% calf serum, Day 0), cells were differentiated (3-isobutyl-1-methylxanthine 0.5 mM, dexamethasone 1 μM, insulin 1.7 μM) for 48 h before media replacement every 48 h (DMEM, 10% FCS insulin, 1.7 μM) for 7 days.
Northern blotting was performed as before with HyBond (Amersham; Ziouzenkova, et al., Proc. Natl. Acad. Sci. USA 100:2730-5 (2003)).
(§4) We determined triglyceride content in lysed cells (RIPA buffer, complete protease inhibitor cocktail, Roche) using an enzymatic colorimetric assay (Wako, Japan) and adiponectin levels via ELISA (R&D, Minneapolis). For Western blotting, cell lysates, plasma, and tissue lysates underwent reducing gel separation (10% acrylamide) and hybridization with RXR (Santa Cruz, Calif.), mouse RBP4 (Alpco), or UCP1 (Chemicon) antibodies.
To test Rald effects on adipogenesis, we performed 3T3-L1 mouse pre-adipocyte differentiation assays in the presence of Rald concentrations similar to those found in fat in vivo. Rald levels as low as 100 nM suppressed mRNA expression of the adipogenic target genes CD36, adiponectin, and aP2. These repressive effects of Rald were evident in a concentration-dependent manner in either the presence or absence of the PPARγ agonist BRL49653 (BRL), a potent adipogenic stimulus.

RXRα-LBD = target: T3, RXRα-LBD (Homo sapiens, UniProt P19793); experiment: LBD-GAL4 transfection assay, RXRα-LBD; type: cell-based
T3 construct: expressed in transfected cells; host or cells: NIH 3T3 cells
T3 sequence (P19793 227-458 limits assumed): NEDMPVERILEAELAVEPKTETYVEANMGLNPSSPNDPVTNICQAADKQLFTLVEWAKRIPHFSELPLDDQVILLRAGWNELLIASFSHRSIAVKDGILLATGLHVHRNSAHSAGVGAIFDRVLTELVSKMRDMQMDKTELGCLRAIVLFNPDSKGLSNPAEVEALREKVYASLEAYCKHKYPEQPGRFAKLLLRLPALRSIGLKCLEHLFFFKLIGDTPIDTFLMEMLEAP
Text: as §1, §2

ob/ob mice = experiment: ob/ob mice, intraperitoneal administration, 3 weeks; type: in vivo, mouse; details: for percentage of subcutaneous fat relative to total body fat / RBP4 plasma levels as compared to vehicle: retinoids 500 nM
Text: The Standing Committee On Animals at Harvard Medical School approved all protocols.
MRI data (1 mm slices) obtained on a Bruker Avance 500 wide bore spectrometer (11.7 T; 500 MHz for proton) fitted with a gradient amplifier and a 30 mm “birdcage” transmitter/receiver coil was processed with Paravision™ software. Spin Echo parameters included TI weighted images: TE=15 ms and TR=300 ms, matrix=256, FOV=30 mm; RARE images: TE=51 ms, TR=2500 ms, matrix=256, FOV=30 mm. Abdominal fat measurements used axial slices (n=8) at the level of the left renal pelvis.
After acclimation to powdered high fat diet (4 d), food/water intake, oxygen consumption, and carbon dioxide production were measured in metabolic cages (Ancare, Charles River Laboratories). Calculated metabolic rate (Weir equation) was expressed per g body weight. We performed insulin (ITT) and glucose tolerance tests (GTT) after food deprivation (16 h) using intraperitoneal insulin injection (ITT, 0.1 U/ml 0.005 ml/g body weight) or single 25% dextrose (GTT, 0.004 mL/g body weight) administration and glucometer measurements (Accu-Chek Advantage, Roche).
After 3 weeks, subcutaneous fat mass was quantified by magnetic resonance imaging (MRI).

PPARγ-LBD = target: T4, PPARγ-LBD (Homo sapiens, UniProt P37231); experiment: Cell-based PPARγ-LBD assay; details: presence of BRL; concentrations <1 μM
T4 construct: expressed in transfected cells; host or cells: NIH 3T3 cells
T4 sequence (P37231 238-503 limits assumed): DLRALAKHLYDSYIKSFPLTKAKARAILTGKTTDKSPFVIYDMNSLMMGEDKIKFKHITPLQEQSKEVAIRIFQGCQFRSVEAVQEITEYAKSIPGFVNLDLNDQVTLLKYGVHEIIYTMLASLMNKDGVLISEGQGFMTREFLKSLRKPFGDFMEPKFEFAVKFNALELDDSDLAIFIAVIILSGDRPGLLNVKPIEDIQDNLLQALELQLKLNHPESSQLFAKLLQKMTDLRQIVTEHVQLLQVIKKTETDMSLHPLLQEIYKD
Text: as §1, §3

[2] = system: preadipocytes isolated from human visceral fat depots; experiment: Adipogenesis in preadipocytes from human visceral fat; type: cell-based
[3] = system: PPAR response element (PPRE); experiment: PPRE luciferase construct after RXR and/or PPARγ transfection; type: cell-based
Text: as §1, §3

[4] = system: RXRα/RXRβ siRNA-treated 3T3-L1 adipocytes; experiment: 3T3-L1 adipogenesis assay after RXRα/RXRβ siRNA; type: cell-based, mouse; details: RXRα/RXRβ siRNA 48 hours, differentiation 7 days
Text: as §1, §4
To evaluate Rald effects in an RXR loss of function model, 3T3-L1 adipogenesis assays in the presence of Rald were repeated but after first decreasing RXRα and RXRβ levels using siRNA to each RXR isotype. […]

rats = details: cited from earlier work
[5] = summary statement, unit inferred, read-out: Kd, receptor binding
[6] = MRI after 3 weeks, i.p., citral 10 μM
[7] = cell-free radioligand displacement, read-out: Kd, displacement of high affinity PPARγ agonists

CC1=C(/C=C/C(C)=C/C=C/C(C)=C/C=O)C(C)(C)CCC1 [Rald, retinaldehyde]
RARα-LBD activation (RARα-LBD; compound alone, 3T3-NIH fibroblasts): weakly activated
RARα-LBD activation by 9-cis RA (RARα-LBD; in presence of 9-cis RA): did not alter
Kd (Human full-length PPARγ2; [5]): 11.9 ± 1.9 µM
adiponectin levels induced by BRL stimulation [1]: mitigated
mRNA expression of adipogenic target genes CD36, adiponectin, aP2 ([1]; Rald levels as low as 100 nM, presence or absence of BRL): suppressed
lipid accumulation ([1]; absence and presence of BRL): decreased
adiponectin expression, compound added early [1]: inhibited
adiponectin expression / adipogenesis, compound added later [1]: also inhibited adipogenesis
adiponectin secretion ([1]; stimulation early or late, concentration-dependent): decreased
RXRα-LBD activation (RXRα-LBD; compound alone): no effect
RXRα-LBD activation by 9-cis RA (RXRα-LBD; in presence of 9-cis RA): significantly inhibited
subcutaneous fat (ob/ob mice; MRI after 3 weeks, i.p. 500 nM): significantly less subcutaneous fat
percentage of subcutaneous fat relative to total body fat (ob/ob mice; [6]): 15.5±0.6%
glucose tolerance (ob/ob mice; i.p., Rald 500 nM, citral 10 μM): improved
RBP4 plasma levels as compared to vehicle (ob/ob mice; i.p., citral 10 μM): significantly suppressed
PPARγ-LBD activation (PPARγ-LBD): suppresses
adipogenesis [2]: repressed
inhibition of PPRE activation ([3]; PPARγ and RXR co-transfection and PPARγ agonist stimulation): 60%
PPRE activation by both agonists (9-cis RA or BRL) ([3]; RXR and/or PPARγ transfection): significantly inhibited
adiponectin secretion after siRNA exposure [4]: no additional effects
triglyceride accumulation after siRNA exposure [4]: further decreased

CC1=C(/C=C/C(C)=C\C=C\C(C)=C\C(=O)O)C(C)(C)CCC1 [9-cis RA, reference compound]
adiponectin expression, compound added early [1]: inhibited
adiponectin expression / adipogenesis, compound added later [1]: no effect

CC1=C(/C=C/C(C)=C/C=C/C(C)=C/C(=O)O)C(C)(C)CCC1 [all-trans RA, Retinoic acid, reference compound]
adiponectin expression / adipogenesis, compound added later [1]: no effect
percentage of subcutaneous fat relative to total body fat (ob/ob mice; [6]): 19.1±1.6%
RBP4 plasma levels as compared to vehicle (ob/ob mice; i.p., citral 10 μM): no effect

CC1=C(/C=C/C(C)=C/C=C/C(C)=C/CO)C(C)(C)CCC1 [vitamin A, retinol, reference compound]
percentage of subcutaneous fat relative to total body fat (ob/ob mice; [6]): 17.3±1.3%
RBP4 plasma levels as compared to vehicle (ob/ob mice; i.p., citral 10 μM): increased RBP4 plasma levels two-fold

CC(C)=CCCC(C)=CC=O [citral, 3,7-dimethyl-2,6-octadienal]
tolerability (rats; high doses, rats): well tolerated
body weight versus citral free diet (rats; rats fed a diet with citral): weighed less
RBP4 plasma levels as compared to vehicle (ob/ob mice; i.p., citral 10 μM): significantly suppressed

CC1=C(/C=C/C(C)=C/C=C/C(C)=C/C=O)C(C)(C)CCC1 [13-cis Rald]
Kd (Human full-length PPARγ2; [7]): 9.7 ± 1.2 µM
Kd (Human full-length PPARγ2; [5]): 9.7 ± 1.2 µM

CC1=C(/C=C/C(C)=C\C=C\C(C)=C\C=O)C(C)(C)CCC1 [9-cis Rald]
Kd (Human full-length PPARγ2; [7]): 5.9 ± 0.7 µM
Kd (Human full-length PPARγ2; [5]): 5.9 ± 0.7 µM

CN(CCOc1ccc(CC2SC(=O)NC2=O)cc1)c1ccccn1 (stereo not drawn) [BRL, rosiglitazone, reference compound]
adiponectin levels induced by BRL stimulation [1]: six-fold increase
